Data set [1] in a line: Phase I dose escalation: MTD and dose-limiting toxicity. It is filed as in vivo, patients. As for the experimental part: Docetaxel was initiated at 60 mg/m^2 IV infusion and increased to 75 mg/m^2 IV infusion in the absence of DLT.
A standard ‘3 + 3’ design was used. The MTD was defined as the highest dose of afatinib at which no more than one out of six patients experienced a DLT. Once the MTD was determined, a further 12 evaluable patients were included at the MTD level.

Another data set is described as follows: clinical. The note with it: human, in vivo.
In a further data set the test system is HER2. The note with it: read-out: IC50 HER2; cited from earlier work.
Another data set relates to ErbB4. As to conditions: read-out: IC50 ErbB4; cited from earlier work.
A short description of data set [2]: Plasma pharmacokinetics (HPLC tandem-mass spectrometry). As to conditions: MTD group.
Protocol: (§1) For determination of the pharmacokinetic (PK) profile of docetaxel, blood samples were collected approximately 5 min before and 1, 2, 4 and 8 h after the start of docetaxel infusion (day 1) in cycles 1 and 2.
(§2) Samples were analysed using validated high-performance liquid chromatography tandem-mass spectrometry. PK parameters were calculated using WinNonlin® Professional (version 5.0.1, Pharsight® Corporation, Cary, NC, USA) and were assessed graphically and summarised by timepoint descriptive statistics using SAS.
For data set [3] the following is noted: human, in vivo.
Protocol: as §1, §2
A further data set deals with advanced NSCLC. The note with it: cited from earlier work; for response rate: advanced NSCLC.
The conditions of data set [4]: docetaxel (day 1) followed by intermittent erlotinib (days 2–16 every 3 weeks), previously treated advanced NSCLC; cited from earlier work.
The subject of another data set is advanced solid tumors. The note with it: intermittent high-dose gefitinib given prior to docetaxel; cited from earlier work.

Where two headings read alike, the source gives them in different places.

Protocol for clinical: as §1, §2

Consider `CN(C)C/C=C/C(=O)Nc1cc2c(Nc3ccc(F)c(Cl)c3)ncnc2cc1O[C@H]1CCOC1` [afatinib], for which, in data set [1] (afatinib days 2–4 with docetaxel 75 mg/m^2 day 1, 3-week cycles), the “maximum tolerated dose (MTD) of afatinib” value stood at 90 mg/day. Besides, the “MTD and recommended phase II dose of afatinib” value in data set [1] (once daily for 3 days following docetaxel 75 mg/m^2) was found to be 90 mg. The AUC(0-t) (commonly the area under the concentration-time curve up to a stated or last time point) was determined as […] in “clinical” and 0.879 µg·h/mL in “clinical” (75 mg/m2). Also, the Tmax (commonly the time at which the peak concentration occurs) in “clinical” was 4.03 h; in data set [2] (human, in vivo, Afatinib tmax, median, treatment cycle 1 (n = 13)), 3 h. The Cmax (in general, the maximum level reached in the sampled fluid or tissue) in “clinical” (Afatinib Cmax, gMean) came to 0.0714 µg/mL. Further, the Vd/F (in general, the apparent distribution volume after extravascular dosing) in “clinical” (Afatinib Vz/F, gMean) was 1500 L. The IC50 (as a rule, the concentration needed to halve the response being measured) was 14 nM with HER2 and […] in the data set on ErbB4.

Consider `CC(=O)O[C@@]12CO[C@@H]1C[C@H](O)[C@@]1(C)C(=O)[C@H](O)C3=C(C)[C@@H](OC(=O)[C@H](O)[C@@H](NC(=O)OC(C)(C)C)c4ccccc4)C[C@@](O)([C@@H](OC(=O)c4ccccc4)[C@H]21)C3(C)C` [docetaxel], for which, in data set [3], the “Docetaxel AUC0–24, gMean” value was found to be 2.68 µg·h/mL; the “Docetaxel AUC0–∞, gMean ratio cycle 2 to cycle 1” value was determined as 118%; the “Docetaxel CL, gMean” value is 682 mL/min; the “Docetaxel Cmax, gMean” value stood at 2.2 µg/mL. Also, in data set [3], the “Docetaxel Cmax, gMean ratio cycle 2 to cycle 1” value is listed as 115%; the “Docetaxel VSS, gMean” value came out at 487 L; the “Docetaxel Vz, gMean” value was found to be 1250 L; the “Docetaxel tmax, median” value came out at 1.00 h. The half-life (in general, the time in which the quantity being followed falls by half) in the data set “clinical” is 20.9 h. The AUC(0-t) in “clinical” (Docetaxel AUC0–24, gMean) came out at 2.63 µg·h/mL. Further, in the data set “clinical” (Docetaxel CL, gMean), the clearance (in general, the volume of plasma or blood freed of the substance per unit of time) is 712 mL/min. For the same molecule, the peak level in the data set “clinical” (Docetaxel Cmax, gMean) (Cmax) was 2.07 µg/mL. Moreover, the Vd (in general, the apparent volume that relates the amount in the body to the concentration in plasma or blood) in “clinical” (Docetaxel VSS, gMean) stood at 488 L. In “clinical” (Docetaxel Vz, gMean), this molecule gave a Vd of 1290 L. The time to peak (Tmax) in “clinical” (Docetaxel tmax, median) was found to be 1 h. Moreover, the AUC(0-inf) (usually the area under the concentration-time curve extrapolated to infinity) in the data set “clinical” (iv, 75 mg/m2) is 3.16 µg·h/mL. Further, in data set [2] (treatment cycle 2 (n = 8)), the “Docetaxel AUC0–∞, gMean” value turned out to be 3.26 µg·h/mL and the “Docetaxel t1/2, gMean” value came out at 21.1 h.

`C#Cc1cccc(Nc2ncnc3cc(OCCOC)c(OCCOC)cc23)c1` [erlotinib]: the response rate in the data set on advanced NSCLC (chemotherapy followed by erlotinib) is 28%; with advanced NSCLC (high-dose erlotinib (days 1 and 2) with carboplatin and paclitaxel (day 3)), 34%; in the data set with advanced NSCLC (low-dose erlotinib, same schedule with carboplatin and paclitaxel) it was 18%. Besides, in the data set on advanced NSCLC (docetaxel (day 1) followed by intermittent erlotinib (days 2–16 every 3 weeks), previously treated advanced NSCLC), the objective response rate was 35%. For the same molecule, in data set [4], the “grade 3/4 neutropenia” value is 60%.

`COc1cc2ncnc(Nc3ccc(F)c(Cl)c3)c2cc1OCCCN1CCOCC1` [gefitinib]: the objective response rate in the data set on advanced solid tumors is on record as 11%.
